Results taken from patent US20050075375A1 (priority 2003, published 2005).

Test system: monocistronic NK5.1 HCV replicon in Huh7 cells
Assay: HCV replicon assay, monocistronic replicon cell line
Format: cell-based, hepatitis C virus
Details: Hepatitis C virus, Huh-7, 72 h; Table 1; monocistronic replicon in Huh7 cells, 3 days incubation, HCV RNA/GAPDH RNA by TaqMan RT-PCR; read-out: Mono EC50 Median
Source text: HCV Replicon Assays (Replicon EC50 (μM))
HCV replication can be measured by a replicon assay such as described by Vrolijk et al, J. Virol. Methods 110:201(2003), which is hereby incorporated in its entirety by reference. The method was implemented as follows.
Monocistronic Replicon Cell Line:
Human hepatocyte Huh7 cells containing the monocistronic NK5.1 replicon were obtained from Ralf Bartenschlager at the University of Mainz, Germany. These cells were maintained under hygromycin selection and passaged when 80-90% confluent.
This cell line contains an autonomously replicating RNA element (replicon) incorporating the non-structural HCV elements necessary for replication, and upon which the survival of the replicon in the cell depends. This replicon contains a single internal ribosome entry site (HCV IRES). Inhibition of any of the critical HCV finctions by a compound leads to loss of the replicon as measured by HCV replicon RNA copy number reduction. The amount of HCV RNA present following a standard incubation with a compound is a measure of the anti-HCV activity of the compound. The assay was conducted by preparing sufficient 96-well plates containing these cells, wherein cells are seeded at 6000 cells/well in a 96-well plate, in 200 μl of final media volume. Cells were then incubated for 24 hours at 37 C., 5% CO2, and 95% humidity before compound was added. Six point half-log concentration response assays were conducted to determine potency/EC50 of Formula I compounds to inhibit HCV replicon replication. The final percent DMSO acceptable in this assay system is 0.6%. Compounds were diluted in media in an appropriate format and 5 μl of each drug dilution is added to each well. Cells were then incubated with compounds for 3 days at 37 C., 5% CO2, and 95% humidity. Following the three day incubation period, plates were washed twice with phosphate buffered saline to remove media and cells were lysed with Qiagen extraction buffer. RNA was extracted and isolated with the Qiagen RNAeasy kit according to the manufacturer's protocol (Qiagen). TaqMan One-Step RT-PCR was used in conjunction with an ABI 7700 Sequence Detector (Applied Biosystems) for the quantitation and analysis of HCV replicon RNA copy number. A GAPDH probe was used for internal normalization. The ratio of HCV RNA to cellular GAPDH RNA was determined and compared to the DMSO-only treated control, and the ratio of HCV RNA/GAPDH RNA was used for an EC50 determination and as a measure of specificity for inhibition of the HCV replicon.

In the case of `COc1ccc(-c2ccn(-c3ccccn3)n2)c(O)c1` [Compound 88, 5-Methoxy-2-(1-pyridin-2-yl-1H-pyrazol-3-yl)-phenol], the EC50 is reported as greater than 32 µM.

`COc1ccc(-c2ccn(-c3ncccc3C(F)(F)F)n2)c(O)c1` [Compound 89, 5-Methoxy-2-[1-(3-trifluoromethyl-pyridin-2-yl)-1H-pyrazol-3-yl]-phenol] gave an EC50 of 8.8 µM.

`COc1ccc(-c2ccn(-c3ncccc3C(F)(F)F)n2)c(OCc2ccccc2)c1` [Compound 90] showed an EC50 of 4.4 µM.

Work on `COc1ccc(-c2ccn(-c3ncccc3C)n2)c(O)c1` [Compound 91, 5-Methoxy-2-[1-(3-methyl-pyridin-2-yl)-1H-pyrazol-3-yl]-phenol] yielded an EC50 of 9.1 µM.

`COc1ccc(-c2ccn(-c3ncccc3C)n2)c(OCc2ccccc2)c1` [Compound 92, 2-[3-(2-Benzyloxy-4-methoxy-phenyl)-pyrazol-1-yl]-3-methyl-pyridine] was tested, and the EC50 was 5.2 µM.

`COc1ccc(O)c(-c2ccn(-c3ncccc3C)n2)c1` [Compound 93, 4-Methoxy-2-[l-(3-methyl-pyridin-2-yl)-1H-pyrazol-3-yl]-phenol] was tested, and the EC50 was 9.1 µM.

`Cc1c2c(=O)oc3ccccc3c2nn1-c1ccccn1` [Compound 94] gave an EC50 of 8.9 µM.

`COc1ccc2oc(=O)c3c(C)n(-c4ccccn4)nc3c2c1` [Compound 95] showed an EC50 of 5.8 µM.

`COc1cccc(OCc2ccccc2)c1-c1ccn(-c2ccccn2)n1` [Compound 96, 2-[3-(2-Benzyloxy-6-methoxy-phenyl)-pyrazol-1-yl]-pyridine] was tested, and the EC50 was 8.6 µM.

`Oc1ccc(Br)cc1-c1ccn(-c2ccccn2)n1` [Compound 97, 4-Bromo-2-(1-pyridin-2-yl-1H-pyrazol-3-yl)-phenol] showed an EC50 of 22 µM.

Compound `Brc1ccc(OCc2ccccc2)c(-c2ccn(-c3ccccn3)n2)c1` [Compound 98, 2-[3-(2-Benzyloxy-5-bromo-phenyl)-pyrazol-1-yl]-pyridine] has an EC50 of 15 µM.

Work on `Cc1cccnc1-n1ccc(-c2cc(Br)ccc2O)n1` [Compound 99, 4-Bromo-2-[1-(3-methyl-pyridin-2-yl)-1H-pyrazol-3-yl]-phenol] yielded an EC50 of 3.6 µM.

With `Oc1ccc(Br)cc1-c1ccn(-c2ncccc2C(F)(F)F)n1` [Compound 100, 4-Bromo-2-[1-(3-trifluoromethyl-pyridin-2-yl)-1H-pyrazol-3-yl]-phenol] the EC50 was 2.3 µM.

For `COc1ccc(O)c(-c2ccn(Cc3ncc(C)c(OC)c3C)n2)c1` [Compound 101, 4-Methoxy-2-[1-(4-methoxy-3,5-dimethyl-pyridin-2-ylmethyl)-1H-pyrazol-3-yl]-phenol], the EC50 was 14.6 µM.

Compound `COc1ccc(O)c(-c2ccn(-c3ccc(C(=O)N4CCCCC4)cn3)n2)c1` [Compound 102, {6-[3-(2-Hydroxy-5-methoxy-phenyl)-pyrazol-1-yl]-pyridin-3-yl)-piperidin-1-yl-methanone] has an EC50 greater than 32 µM.

Compound `COc1ccc(OCc2ccccc2)c(-c2ccn(Cc3nccc(OC)c3OC)n2)c1` [Compound 103, 2-[3-(2-Benzyloxy-5-methoxy-phenyl)-pyrazol-1-ylmethyl]-3,4-dimethoxy-pyridine] has an EC50 greater than 32 µM.

`COc1ccc(O)c(-c2ccn(-c3ncccc3C(=O)N3CCCCC3)n2)c1` [Compound 104, {2-[3-(2-Hydroxy-5-methoxy-phenyl)-pyrazol-1-yl]-pyridin-3-yl}-piperidin-1-yl-methanone] showed an EC50 greater than 32 µM.

`COc1ccc(O)c(-c2ccn(Cc3nccc(OC)c3OC)n2)c1` [Compound 105, 2-[1-(3,4-Dimethoxy-pyridin-2-ylmethyl)-1H-pyrazol-3-yl]-4-methoxy-phenol] showed an EC50 greater than 32 µM.

With `Oc1ccc(Br)cc1-c1ccnn1-c1ncccc1C(F)(F)F` [Compound 106, 4-Bromo-2-[2-(3-trifluoromethyl-pyridin-2-yl)-2H-pyrazol-3-yl]-phenol] the EC50 was 15 µM.

Compound `FC(F)(F)c1cccnc1-n1nccc1-c1cc(Br)ccc1OCc1ccccc1` [Compound 107, 2-[5-(2-Benzyloxy-5-bromo-phenyl)-pyrazol-1-yl]-3-trifluoromethyl-pyridine] has an EC50 of 2.6 µM.

For `FC(F)(F)c1cccnc1-n1ccc(-c2cc(Br)ccc2OCc2ccccc2)n1` [Compound 108, 2-[3-(2-Benzyloxy-5-bromo-phenyl)-pyrazol-1-yl]-3-trifluoromethyl-pyridine], the EC50 was greater than 32 µM.

`COc1ccc(O)c(-c2ccnn2Cc2ccc3ccccc3n2)c1` [Compound 109, 4-Methoxy-2-(2-quinolin-2-ylmethyl-2H-pyrazol-3-yl)-phenol] was tested, and the EC50 was greater than 32 µM.

`COc1ccc(OCc2ccccc2)c(-c2ccnn2Cc2ccc3ccccc3n2)c1` [Compound 110, 2-[5-(2-Benzyloxy-5-methoxy-phenyl)-pyrazol-1-ylmethyl]-quinoline] gave an EC50 of 8 µM.

`COc1ccc(O)c(-c2ccn(Cc3ccc4ccccc4n3)n2)c1` [Compound 111, 4-Methoxy-2-(1-quinolin-2-ylmethyl-1H-pyrazol-3-yl)-phenol] gave an EC50 of 14 µM.

Compound `COc1ccc(OCc2ccccc2)c(-c2ccn(Cc3ccc4ccccc4n3)n2)c1` [Compound 112, 2-[3-(2-Benzyloxy-5-methoxy-phenyl)-pyrazol-1-ylmethyl]-quinoline] has an EC50 of 6 µM.

`COc1ccc(O)c(-c2ccn(Cc3ccccn3)n2)c1` [Compound 113, 4-Methoxy-2-(1-pyridin-2-ylmethyl-1H-pyrazol-3-yl)-phenol] was tested, and the EC50 was greater than 32 µM.

For `COc1ccc(OCc2ccccc2)c(-c2ccn(Cc3ccccn3)n2)c1` [Compound 114, 2-[3-(2-Benzyloxy-5-methoxy-phenyl)-pyrazol-1-ylmethyl]-pyridine], the EC50 was 9.5 µM.

In the case of `COc1ccc(O)c(-c2ccnn2Cc2ccccn2)c1` [Compound 115, 4-Methoxy-2-(2-pyridin-2-ylmethyl-2H-pyrazol-3-yl)-phenol], the EC50 is reported as greater than 32 µM.

In the case of `COc1ccc(OCc2ccccc2)c(-c2ccnn2Cc2ccccn2)c1` [Compound 116, 2-[5-(2-Benzyloxy-5-methoxy-phenyl)-pyrazol-1-ylmethyl]-pyridine], the EC50 is reported as 13 µM.

In the case of `COc1ccc(O)c(-c2ccn(-c3ncccc3[N+](=O)[O-])n2)c1` [Compound 117, 4-Methoxy-2-[1-(3-nitro-pyridin-2-yl)-1H-pyrazol-3-yl]-phenol], the EC50 is reported as 25.4 µM.

For `COc1ccc(-c2ccn(-c3ccccn3)n2)c(O)c1OC` [Compound 118, 2,3-Dimethoxy-6-(1-pyridin-2-yl-1H-pyrazol-3-yl)-phenol], the EC50 was 23.8 µM.

Work on `COc1ccc(-c2ccn(-c3ncccc3C)n2)c(O)c1OC` [Compound 119, 2,3-Dimethoxy-6-[1-(3-methyl-pyridin-2-yl)-1 H-pyrazol-3-yl]-phenol] yielded an EC50 of 11.8 µM.

Compound `COc1cc(O)c(-c2ccn(-c3ccccn3)n2)cc1OC` [Compound 120, 4,5-Dimethoxy-2-(1-pyridin-2-yl-1H-pyrazol-3-yl)-p henol] has an EC50 of 31.2 µM.

For `COc1cc(OCc2ccccc2)c(-c2ccn(-c3ccccn3)n2)cc1OC` [Compound 121, 2-[3-(2-Benzyloxy-4,5-dimethoxy-phenyl)-pyrazol-1-yl]-pyridine], the EC50 was 13.5 µM.

`COc1cc(O)c(-c2ccn(-c3ncccc3C)n2)cc1OC` [Compound 122, 4,5-Dimethoxy-2-[l-(3-methyl-pyridin-2-yl)-1H-pyrazol-3-yl]-phenol] showed an EC50 of 13 µM.

Work on `Oc1ccccc1-c1cc(-c2ccccn2)on1` [Compound 123, 2-(5-Pyridin-2-yl-isoxazol-3-yl)-phenol] yielded an EC50 greater than 32 µM.

`COc1cccc(-c2cc(-c3ccccn3)on2)c1O` [Compound 124, 2-Methoxy-6-(5-pyridin-2-yl-isoxazol-3-yl)-phenol] showed an EC50 of 26 µM.

`COc1ccc(O)c(-c2cc(-c3ccccn3)on2)c1` [Compound 125, 4-Methoxy-2-(5-pyridin-2-yl-isoxazol-3-yl)-phenol] gave an EC50 of 11 µM.

In the case of `Oc1c(Cl)cc(Cl)cc1-c1cc(-c2ccccn2)on1` [Compound 127, 2,4-Dichloro-6-(5-pyridin-2-yl-isoxazol-3-yl)-phenol], the EC50 is reported as 7.4 µM.

`Oc1ccc(Br)cc1-c1cc(-c2ncccc2C(F)(F)F)on1` [Compound 128, 4-Bromo-2-[5-(3-trifluoromethyl-pyridin-2-yl)-isoxazol-3-yl]-phenol] gave an EC50 greater than 32 µM.

Work on `COc1ccc(O)c(-c2cc(-c3ncccc3C(F)(F)F)on2)c1` [Compound 129, 4-Methoxy-2-[5-(3-trifluoromethyl-pyridin-2-yl)-isoxazol-3-yl]-phenol] yielded an EC50 of 3.8 µM.

With `Oc1ccc(Br)cc1-c1cc(-c2ccccn2)on1` [Compound 130, 4-Bromo-2-(5-pyridin-2-yl-isoxazol-3-yl)-phenol] the EC50 was 11 µM.

With `Cc1cccnc1-c1cc(-c2cc(Br)ccc2O)no1` [Compound 131, 4-Bromo-2-[5-(3-methyl-pyridin-2-yl)-isoxazol-3-yl]-phenol] the EC50 was 4.5 µM.
